# Measured values as given in patent US20230381162A1, “TREATMENTS OF ANGIOEDEMA” (KALVISTA PHARMACEUTICALS LIMITED, priority 2020, published 2023).
# Key:
# [1] = higher doses; cited from earlier work
# [2] = tested on: angioedema attacks in adult subjects with hereditary angioedema type I or II; test: Phase 2 study Part 2: on-demand treatment of HAE attacks, efficacy; assay type: in vivo, human; settings: 600 mg
# Description: This was a phase 2, two-part, two-sequence, two-period (2×2) cross-over clinical trial. Subjects with HAE type I or II were recruited through HAE treatment centres in Europe and US.
# (§1) In Part 2, the subjects were randomized 1:1 to 2 treatment sequences. This part of the study was conducted away from the clinic or hospital. In Sequence 1 (study arm 1) subjects received a single dose of 600 mg of the compound to treat the first eligible HAE attack. Following resolution of this attack, subjects received a single dose of placebo to treat the second eligible HAE attack.
# In Sequence 2 (study arm 2) subjects received a single dose of placebo to treat the first eligible HAE attack. Following resolution of this attack, subjects received a single dose of 600 mg of the compound to treat the second eligible HAE attack.
# Laryngeal or facial attacks were not eligible for treatment. HAE attacks must have been treated within the first hour of onset and before reaching severe on the global attack severity scale. Subjects must also have been able to identify the start of a HAE attack. Upon onset of the eligible HAE attack, subjects notified the dedicated study physician or qualified designee with a description of the HAE attack. The dedicated study physician or qualified designee confirmed eligibility of the HAE attack and agreed to study drug being administered. HAE attacks required documentation, on the Subject Diary, of attack location, attack symptoms, time of onset, attack severity, and time of last substantial meal prior to dosing. Subjects took study drug, as instructed, and completed timed assessments of their HAE attack symptoms for a 48 h period as documented below in Table 3. The dedicated study physician or qualified designee contacted the subject within 24 h of the eligible HAE attack to confirm the subject's safety and wellbeing. Subjects were instructed to contact the dedicated study physician or qualified designee in case of any safety concerns. In the case of hypersensitivity, subjects contacted the dedicated study physician or qualified designee or contact the nearest emergency service. The dedicated study physician or qualified designee was available 24 h/day and 7 days/week to receive subject calls.
# Time to use of conventional attack treatment was assessed. The subject diary captured the efficacy endpoints including time to use of conventional attack treatment and HAE attack severity.
# Overall HAE attack severity was assessed on a 5-point Likert scale (5LS) scored as none, mild, moderate, severe and very severe.
# Change in HAE attack severity was assessed using a 7-point transition question (7TQ), scored as Much better/Better/A little better/No change/A little worse/Worse/Much worse.
# The type of HAE attack symptoms (abdominal pain, skin pain and skin swelling) was each assessed on a 100 mm visual analogue scale (VAS) anchored at 0 (none) and 100 (very severe).
# The primary endpoint, time to use of conventional attack treatment, was analyzed using a generalization of Gehan's test proposed by Feingold and Gillespie (1996) (Crossover trials with censored data. Statistics in Medicine 1996; 15(10): 953-967) to reflect the repeat measures on each subject. Subjects were treated as censored if no worsening occurs within 12 h of study drug.
# The proportion of HAE attacks that worsen by one level or more on the 5LS or that require conventional attack treatment within 12 h of study drug was analyzed using Prescott's test (1981) (The comparison of success rates in cross-over trials in the presence of an order effect. Applied Statistics 1981; 30: 9-15) to compare the treatment arms.
# A similar approach to that used for the primary endpoint was followed for the analysis of the time between study drug and HAE attack worsening by one level or more on the 5LS or use of conventional attack treatment, whichever comes first within 12 h. […]
# [3] = Phase 1 multiple dose study in healthy adult subjects: safety, ECG; assay type: in vivo, human; settings: 3 x 600 mg every 8, 4 or 2 hours, total 1800 mg
# Description: This is a phase 1, double-blind, placebo-controlled, multiple-dose, multiple-cohort study to evaluate safety and tolerability of the compound as well as of the ECG effects of the compound formulated as 100 mg Film Coated Tablets in healthy adult male and female subjects.
# During the study, oral doses of 600 mg of the compound as Film Coated Tablets (six 100 mg tablets) or 6 matching placebo tablets will be administered once every 8 hours (Cohort 1) every 4 hours (Cohort 2), or every 2 hours (Cohort 3 and 4) to healthy adult male and female subjects up to a total dose of 1800 mg. In Cohorts 1, 2 and 3, 6 subjects will receive the compound as 100 mg Film Coated Tablets and 2 subjects will receive the placebo for a total of 8 subjects per cohort. In Cohort 4, 12 subjects will receive the compound as 100 mg Film Coated Tablets and 6 subjects will receive the placebo for a total of 18 subjects.
# A Holter monitor will be attached to each subject in order to continuously record ECGs. The monitor will be attached 1 hour before the first dose and will remain attached until after the final blood sample collection. The electrodes for the Holter monitor will be checked by a member of the clinic staff at appropriate intervals to ensure they are attached.
# [4] = Phase 2 study: safety (adverse events); assay type: in vivo, human
# Description: In Part 1, subjects received a single oral dose of 600 mg of the compound to investigate the safety, PK and PD of the compound during the intercritical period between HAE attacks.
# as §1
# Safety Variables: • AEs, including serious adverse events (SAEs). • Laboratory test results (clinical chemistry, hematology, coagulation, and urinalysis). • Vital signs (SBP, DBP, PR, RR, body temperature). • Physical examination findings. • ECG results. • Pregnancy test (female subjects of child-bearing potential).
# AEs were coded using the Medical Dictionary for Regulatory Activities (MedDRA) dictionary (v21.0 or higher) and classified by preferred term and system organ class (SOC). Listings of treatment-emergent adverse events (TEAEs), serious TEAEs, and TEAEs causing premature discontinuation will be provided by sequence group, and further classified by TEAE severity and relationship to study drug.
# [5] = Phase 1 single ascending dose study: plasma concentrations (PK); assay type: in vivo, human; settings: oral capsule, fasted, 5 mg to 600 mg
# Description: (§2) This study was a randomized, double-blind, placebo-controlled single ascending dose (SAD) and crossover studies for food effect and capsule/tablet formulations.
# Samples for pharmacokinetic (PK) and PD assessment were taken at repeated intervals over 48 hours.
# Plasma samples used for PK assessment were analysed using a validated liquid chromatography tandem mass spectrometry (LC MS/MS) method.
# [6] = Phase 1 single ascending dose study: safety and tolerability; assay type: in vivo, human; settings: phase I trial, healthy males
# Text: as §2
# [7] = molecular target: T1, Human plasma kallikrein (Homo sapiens, UniProt P03952); test: Plasma kallikrein inhibitory activity in vitro (purified enzyme, fluorogenic substrate); assay type: biochemical
# T1 construct: purchased Protogen
# Description: Human plasma kallikrein (Protogen) was incubated at 25° C. with the fluorogenic substrate H-DPro-Phe-Arg-AFC and various concentrations of the test compound. Residual enzyme activity (initial rate of reaction) was determined by measuring the change in […] at 410 nm and the IC50 value for the test compound was determined.
# [8] = molecular target: T2, plasma kallikrein activity in pre-activated plasma (Homo sapiens, UniProt P03952); test: Inhibition of enzyme activity of pre-activated undiluted plasma (inhibitor added after DXS); assay type: biochemical; settings: compound 300, 1000, 3000 nM; C1-INH 3000 nM; added 3.5 minutes post DXS (FIG. 3B)
# T2 construct: from tissue
# Description: The ability of the compound to inhibit the enzyme activity of pre-activated plasma was assessed by addition of the compound after DXS stimulation. Aliquots of plasma (20 μL) were mixed with a 2.5 μL solution containing […] fluorogenic substrate (H-DPro-Phe-Arg-AFC) and a 2.5 μL solution of dextran sulphate (DXS; 100 μg/mL) which acted as an activator of the plasma kallikrein-kinin pathway. Enzyme activity was immediately measured by monitoring the accumulation of fluorescence liberated from the substrate by substrate cleavage over 16 minutes. At 3.5 minutes post DXS addition 5 μl of inhibitors or water control are were added into each well. The compound was tested at concentrations of 300, 1000 and 3000 nM. C1-INH at a concentration of 3000 nM and vehicle controls were also included.
# [9] = molecular target: PKa in DXS-activated plasma (Homo sapiens, UniProt P03952); test: Catalytic activity of PKa in dextran sulfate-activated plasma (inhibitor added in vitro); assay type: biochemical; settings: read-out: IC50 plasma enzyme
# Description: Catalytic activity of PKa in dextran sulfate-activated (DXS, Sigma; 10 μg/ml) plasma (1:4 diluted or undiluted, VisuCon-F control plasma, Affinity Biologicals Inc) was determined by the time-dependent hydrolysis of fluorogenic substrate.
# [10] = molecular target: purified PKa (Homo sapiens, UniProt P03952); test: Rate of formation of the enzyme-inhibitor complex (Kon) with purified PKa; assay type: biochemical
# Description: The rate of formation of the enzyme-inhibitor complex (Kon) was determined using purified PKa rapidly mixed with a solution containing fluorogenic substrate and a concentration range of inhibitor. The time-dependent establishment of inhibition was then used to calculate the rate of formation of the enzyme-inhibitor complex for each concentration of inhibitor. The Kon was calculated by plotting the rate of inhibition versus the inhibitor concentration. Data in Table 1 are presented in μM^−1 sec^−1.
# [11] = human, in vivo; cited from earlier work
# Sequence of PKa in DXS-activated plasma (P03952 391-638 limits assumed): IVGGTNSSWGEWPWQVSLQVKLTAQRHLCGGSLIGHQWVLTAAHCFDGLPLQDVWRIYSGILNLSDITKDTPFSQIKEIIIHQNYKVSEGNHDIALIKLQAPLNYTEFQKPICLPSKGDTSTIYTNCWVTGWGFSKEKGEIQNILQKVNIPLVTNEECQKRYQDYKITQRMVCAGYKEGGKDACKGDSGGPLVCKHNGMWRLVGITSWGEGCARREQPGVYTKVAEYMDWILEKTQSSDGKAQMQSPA
# Sequence of PKa in DXS-activated plasma (P03952 20-390 partner limits assumed): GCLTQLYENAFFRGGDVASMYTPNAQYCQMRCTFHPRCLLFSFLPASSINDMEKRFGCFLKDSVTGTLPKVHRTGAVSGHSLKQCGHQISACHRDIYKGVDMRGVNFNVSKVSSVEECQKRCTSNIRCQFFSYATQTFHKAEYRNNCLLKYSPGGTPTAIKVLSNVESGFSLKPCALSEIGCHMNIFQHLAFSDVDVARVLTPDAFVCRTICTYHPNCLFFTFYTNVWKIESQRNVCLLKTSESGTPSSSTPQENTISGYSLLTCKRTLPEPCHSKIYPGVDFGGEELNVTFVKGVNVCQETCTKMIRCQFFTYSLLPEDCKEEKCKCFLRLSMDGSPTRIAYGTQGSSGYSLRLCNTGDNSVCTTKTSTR
# T2 sequence (P03952 391-638 limits assumed): as the sequence (P03952 391-638 limits assumed) above
# T2 sequence (P03952 20-390 partner limits assumed): as the sequence (P03952 20-390 partner limits assumed) above
# T1 sequence (P03952 391-638 limits assumed): as the sequence (P03952 391-638 limits assumed) above
# T1 sequence (P03952 20-390 partner limits assumed): as the sequence (P03952 20-390 partner limits assumed) above
# Sequence of purified PKa (P03952 391-638 limits assumed): as the sequence (P03952 391-638 limits assumed) above
# Sequence of purified PKa (P03952 20-390 partner limits assumed): as the sequence (P03952 20-390 partner limits assumed) above
compound,measurement,setting,value
N#Cc1cccc([C@@H](NCC2CC2)c2ccc(F)c(NC(=O)c3cc(C(F)(F)F)nn3-c3cccc(CN)c3)c2)c1 [berotralstat],gastrointestinal adverse effects,[1],more gastrointestinal adverse effects
"COCc1nn(Cc2ccc(Cn3ccccc3=O)cc2)cc1C(=O)NCc1nccc(OC)c1F [compound of Formula A, N-[(3-fluoro-4-methoxypyridin-2-yl)methyl]-3-(methoxymethyl)-1-({4-[(2-oxopyridin-1-yl)methyl]phenyl}methyl)pyrazole-4-carboxamide]",median time for attacks to be rated better or higher (7TQ),[2],5 h
same,median time to onset of symptom relief on PGI-C (7TQ),[2],1.6 h
same,"median time to symptom relief, composite VAS score",[2],6 h
same,attacks rescued (use of rescue medication),[2]; at 12 hours,15.1%
same,use of rescue medication,[2]; at 24 hours,20.8%
same,attacks improved to none on PGI-S (5LS),[2]; within 12 hours,56.6%
same,attacks rated a little better or higher (7TQ),[2]; within 12 hours,83.0%
same,attacks rated better or higher (7TQ),[2]; within 12 hours,58.7%
same,attacks that do not worsen,[2]; within 12 hours,79.2%
same,attacks improved to none on PGI-S (5LS),[2]; within 24 hours,66.0%
same,attacks rated a little better or higher (7TQ),[2]; within 24 hours,84.9%
same,attacks rated better or higher (7TQ),[2]; within 24 hours,67.9%
same,attacks that do not worsen (5LS),[2]; within 24 hours,69.8%
same,discontinuations because of an AE,[3],no subjects were discontinued because of an AE
same,effects on the studied ECG parameters,[3],No clinically relevant effects
same,serious adverse events,[3],No serious adverse events
same,severity of all reported adverse events,[3],mild
same,"on-treatment drug-related TEAEs, number of events","[4]; Part 1, open-label, 600 mg",8
same,patients with on-treatment drug-related TEAEs,"[4]; Part 1, open-label, 600 mg",5 patients
same,"on-treatment drug-related TEAEs, number of events","[4]; Part 2, crossover, 600 mg",3
same,serious adverse events,[4]; phase 2 trial,no serious adverse events
same,withdrawals due to adverse events,[4]; phase 2 trial,no patients withdrew due to adverse events
same,plasma exposure,[5],rapid and dose-dependent plasma exposure
same,serious adverse events,[6],No serious adverse events
same,tolerability signals,[6],no tolerability signals
"C1-INH: C1 inhibitor (C1-INH, Sigma Cat #E0518), used as a therapeutic benchmark for HAE [Compound C1-INH]",IC50,[7],50 nM
same,inhibition of enzyme activity on addition after activation of plasma,[8],slower action
same,IC50,[9],1700 nM
same,Kon,[10],40000 M⁻¹ s⁻¹
Ecallantide,anaphylactic reactions,[11],risks of anaphylactic reactions have been reported
